Assay results taken from PMC4286194 (Biochemical Journal, 2015).

What was measured:
TSSK1 = biological target: T1, TSSK1 (Homo sapiens, UniProt Q9BXA7); experiment: Kinase profiling; type: biochemical
T1 sequence (Q9BXA7 1-367): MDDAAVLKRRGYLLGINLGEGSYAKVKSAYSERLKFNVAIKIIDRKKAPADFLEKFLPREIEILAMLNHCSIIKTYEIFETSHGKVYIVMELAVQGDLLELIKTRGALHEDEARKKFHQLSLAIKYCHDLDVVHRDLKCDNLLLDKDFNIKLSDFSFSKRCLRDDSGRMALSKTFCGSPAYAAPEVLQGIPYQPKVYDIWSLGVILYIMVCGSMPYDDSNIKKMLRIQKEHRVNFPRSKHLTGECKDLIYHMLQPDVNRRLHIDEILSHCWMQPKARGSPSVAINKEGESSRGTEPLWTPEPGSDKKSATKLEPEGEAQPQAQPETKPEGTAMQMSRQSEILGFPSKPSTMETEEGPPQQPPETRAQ

IKK epsilon = biological target: T2, IKK epsilon (Homo sapiens, UniProt Q14164); experiment: Kinase profiling; type: biochemical
T2 sequence (Q14164 1-716): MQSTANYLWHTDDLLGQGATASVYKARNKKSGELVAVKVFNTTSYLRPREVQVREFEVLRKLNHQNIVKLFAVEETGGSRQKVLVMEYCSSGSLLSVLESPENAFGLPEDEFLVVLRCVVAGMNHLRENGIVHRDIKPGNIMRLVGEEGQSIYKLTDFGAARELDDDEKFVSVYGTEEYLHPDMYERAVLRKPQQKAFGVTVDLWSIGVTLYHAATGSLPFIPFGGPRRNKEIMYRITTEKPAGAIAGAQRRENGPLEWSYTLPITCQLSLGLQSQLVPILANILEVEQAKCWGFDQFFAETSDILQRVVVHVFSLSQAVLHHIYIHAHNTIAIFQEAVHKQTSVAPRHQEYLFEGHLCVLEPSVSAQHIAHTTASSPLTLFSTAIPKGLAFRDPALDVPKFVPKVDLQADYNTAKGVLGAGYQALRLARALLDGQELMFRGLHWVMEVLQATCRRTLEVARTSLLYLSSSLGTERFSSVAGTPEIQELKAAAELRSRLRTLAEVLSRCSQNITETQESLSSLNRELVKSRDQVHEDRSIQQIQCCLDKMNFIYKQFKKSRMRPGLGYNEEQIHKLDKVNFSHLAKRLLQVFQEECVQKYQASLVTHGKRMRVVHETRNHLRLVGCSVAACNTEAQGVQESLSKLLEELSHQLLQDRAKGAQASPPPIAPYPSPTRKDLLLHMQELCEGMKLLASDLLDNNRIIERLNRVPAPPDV

[1] = tested on: Bone-marrow-derived macrophages; experiment: Markers of alternatively activated macrophages (qPCR); type: cell-based, mouse; conditions: 3 μM bosutinib or 0.3 μM dasatinib 1 h, then LPS
Experimental: mRNA was extracted from cells using the MicroElute Total RNA kit following the manufacturers’ instructions (Omega Bio-Tek). cDNA was generated from 0.5 μg of total RNA using the iScript cDNA synthesis kit and quantified by quantitative real-time PCR (qPCR) using the SsoFast EvaGreen Supermix on a CFX384 real-time system (Bio-Rad Laboratories). The relative expression of each gene was calculated from CT values using the Pfaffl method and was normalized against the mRNA levels of housekeeping genes including 18S RNA and GAPDH. Results are reported relative to untreated control cells, which were set to 1.

MARK2 = MARK2 (Homo sapiens, UniProt Q7KZI7); experiment: Kinase profiling; type: biochemical
p38 alpha MAPK = p38 alpha MAPK (Homo sapiens, UniProt Q16539); experiment: Kinase profiling; type: biochemical
PRAK = biological target: T3, PRAK (Homo sapiens, UniProt Q8IW41); experiment: Kinase profiling; type: biochemical
T3 sequence (Q8IW41 1-473): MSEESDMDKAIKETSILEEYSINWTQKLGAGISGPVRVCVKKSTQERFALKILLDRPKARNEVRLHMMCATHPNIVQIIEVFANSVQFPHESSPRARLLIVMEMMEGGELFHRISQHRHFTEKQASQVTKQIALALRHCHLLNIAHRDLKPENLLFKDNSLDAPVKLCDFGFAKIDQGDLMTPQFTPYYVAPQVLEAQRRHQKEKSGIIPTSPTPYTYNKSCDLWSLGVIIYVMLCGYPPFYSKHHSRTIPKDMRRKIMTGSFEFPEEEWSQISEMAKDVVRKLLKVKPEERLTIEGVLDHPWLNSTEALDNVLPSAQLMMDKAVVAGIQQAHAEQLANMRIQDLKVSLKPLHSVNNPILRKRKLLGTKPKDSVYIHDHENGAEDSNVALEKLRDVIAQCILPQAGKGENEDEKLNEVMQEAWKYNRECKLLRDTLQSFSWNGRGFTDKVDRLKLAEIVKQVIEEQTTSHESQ

TESK1 = TESK1 (Homo sapiens, UniProt Q15569); experiment: Kinase profiling; type: biochemical
TBK1 = biological target: T4, TBK1 (Homo sapiens, UniProt Q9UHD2); experiment: Kinase profiling; type: biochemical
T4 sequence (Q9UHD2 1-729): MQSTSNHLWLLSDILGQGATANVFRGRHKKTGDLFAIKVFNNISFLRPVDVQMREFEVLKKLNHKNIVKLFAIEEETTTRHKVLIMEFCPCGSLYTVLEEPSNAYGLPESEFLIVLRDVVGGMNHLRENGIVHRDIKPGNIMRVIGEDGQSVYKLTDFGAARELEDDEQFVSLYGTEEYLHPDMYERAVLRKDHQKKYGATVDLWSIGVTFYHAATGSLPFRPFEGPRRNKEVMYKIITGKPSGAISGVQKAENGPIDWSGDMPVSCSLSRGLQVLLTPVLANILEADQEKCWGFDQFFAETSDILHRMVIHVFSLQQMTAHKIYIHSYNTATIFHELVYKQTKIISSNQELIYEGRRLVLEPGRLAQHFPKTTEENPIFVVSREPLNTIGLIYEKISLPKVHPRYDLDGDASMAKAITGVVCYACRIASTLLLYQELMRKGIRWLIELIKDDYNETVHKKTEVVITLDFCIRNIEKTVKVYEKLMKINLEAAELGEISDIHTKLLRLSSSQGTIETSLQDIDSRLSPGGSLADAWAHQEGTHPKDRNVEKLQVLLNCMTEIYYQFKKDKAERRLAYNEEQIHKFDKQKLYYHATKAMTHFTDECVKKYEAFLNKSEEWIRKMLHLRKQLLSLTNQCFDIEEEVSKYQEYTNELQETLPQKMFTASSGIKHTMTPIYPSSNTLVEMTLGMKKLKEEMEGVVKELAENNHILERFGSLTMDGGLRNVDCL

IGF-1R = IGF-1R (Homo sapiens, UniProt P08069); experiment: Kinase profiling; type: biochemical
Sequence of IGF-1R (P08069 31-1367): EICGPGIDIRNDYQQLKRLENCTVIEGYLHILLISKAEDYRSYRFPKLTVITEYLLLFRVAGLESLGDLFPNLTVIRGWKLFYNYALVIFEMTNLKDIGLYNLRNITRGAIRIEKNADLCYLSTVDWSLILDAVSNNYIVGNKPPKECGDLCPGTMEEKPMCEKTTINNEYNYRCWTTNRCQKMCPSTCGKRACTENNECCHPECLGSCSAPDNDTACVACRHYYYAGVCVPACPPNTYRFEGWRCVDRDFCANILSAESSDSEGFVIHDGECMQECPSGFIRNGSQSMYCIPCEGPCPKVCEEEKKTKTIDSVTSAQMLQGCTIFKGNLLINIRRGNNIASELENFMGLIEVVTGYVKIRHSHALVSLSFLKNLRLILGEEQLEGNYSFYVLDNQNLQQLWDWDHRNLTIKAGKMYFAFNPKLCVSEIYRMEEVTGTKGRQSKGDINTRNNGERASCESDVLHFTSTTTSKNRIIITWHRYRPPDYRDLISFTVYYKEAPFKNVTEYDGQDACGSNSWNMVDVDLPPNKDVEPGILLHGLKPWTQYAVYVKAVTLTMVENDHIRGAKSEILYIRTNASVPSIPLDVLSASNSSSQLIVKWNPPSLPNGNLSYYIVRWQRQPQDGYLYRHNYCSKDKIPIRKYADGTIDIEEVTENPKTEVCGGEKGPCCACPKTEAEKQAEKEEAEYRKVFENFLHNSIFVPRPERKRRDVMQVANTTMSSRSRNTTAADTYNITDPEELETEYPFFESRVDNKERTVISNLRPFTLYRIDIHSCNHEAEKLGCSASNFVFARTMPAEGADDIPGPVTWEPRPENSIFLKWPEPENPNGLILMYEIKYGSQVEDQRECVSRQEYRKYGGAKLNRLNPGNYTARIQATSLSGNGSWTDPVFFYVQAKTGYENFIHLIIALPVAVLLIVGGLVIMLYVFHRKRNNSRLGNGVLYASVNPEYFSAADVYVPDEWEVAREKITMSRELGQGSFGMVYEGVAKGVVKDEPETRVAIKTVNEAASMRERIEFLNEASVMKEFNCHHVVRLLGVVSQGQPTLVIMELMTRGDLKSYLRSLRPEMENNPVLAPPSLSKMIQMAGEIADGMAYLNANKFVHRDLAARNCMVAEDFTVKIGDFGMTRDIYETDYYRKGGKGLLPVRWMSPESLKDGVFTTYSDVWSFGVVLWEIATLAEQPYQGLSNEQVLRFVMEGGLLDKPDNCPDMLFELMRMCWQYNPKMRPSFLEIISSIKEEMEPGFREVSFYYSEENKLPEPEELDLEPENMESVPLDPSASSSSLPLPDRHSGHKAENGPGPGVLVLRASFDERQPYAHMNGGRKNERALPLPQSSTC

Sequence of MARK2 (Q7KZI7 whole entry): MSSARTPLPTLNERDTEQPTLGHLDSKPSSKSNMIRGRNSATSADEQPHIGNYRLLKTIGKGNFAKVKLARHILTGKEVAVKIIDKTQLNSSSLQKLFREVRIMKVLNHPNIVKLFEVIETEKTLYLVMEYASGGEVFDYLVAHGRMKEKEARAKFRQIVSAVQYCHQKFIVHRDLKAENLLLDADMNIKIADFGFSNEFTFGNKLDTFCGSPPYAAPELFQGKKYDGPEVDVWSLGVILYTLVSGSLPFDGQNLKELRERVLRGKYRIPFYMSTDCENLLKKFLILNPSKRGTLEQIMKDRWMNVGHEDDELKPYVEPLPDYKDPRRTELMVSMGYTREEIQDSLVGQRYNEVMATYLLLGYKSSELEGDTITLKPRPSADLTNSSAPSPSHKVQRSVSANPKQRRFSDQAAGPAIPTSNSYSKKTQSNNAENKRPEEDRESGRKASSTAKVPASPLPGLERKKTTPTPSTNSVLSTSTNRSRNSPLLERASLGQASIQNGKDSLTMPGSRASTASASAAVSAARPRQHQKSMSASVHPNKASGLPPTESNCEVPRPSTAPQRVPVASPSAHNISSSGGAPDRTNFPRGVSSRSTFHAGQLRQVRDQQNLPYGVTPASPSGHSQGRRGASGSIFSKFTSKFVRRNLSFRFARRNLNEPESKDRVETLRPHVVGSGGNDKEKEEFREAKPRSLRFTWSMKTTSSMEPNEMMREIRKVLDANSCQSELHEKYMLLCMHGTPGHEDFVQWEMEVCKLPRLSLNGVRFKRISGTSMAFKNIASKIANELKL
Sequence of p38 alpha MAPK (Q16539 whole entry): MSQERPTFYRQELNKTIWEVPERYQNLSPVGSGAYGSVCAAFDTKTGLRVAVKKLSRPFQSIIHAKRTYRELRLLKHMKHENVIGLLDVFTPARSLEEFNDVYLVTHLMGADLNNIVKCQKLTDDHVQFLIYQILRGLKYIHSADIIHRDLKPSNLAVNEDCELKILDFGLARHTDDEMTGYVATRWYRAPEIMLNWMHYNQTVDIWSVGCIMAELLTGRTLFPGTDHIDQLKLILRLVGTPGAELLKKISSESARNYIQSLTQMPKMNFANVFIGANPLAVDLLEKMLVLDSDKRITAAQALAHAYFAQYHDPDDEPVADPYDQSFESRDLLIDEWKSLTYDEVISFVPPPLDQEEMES
Sequence of TESK1 (Q15569 whole entry): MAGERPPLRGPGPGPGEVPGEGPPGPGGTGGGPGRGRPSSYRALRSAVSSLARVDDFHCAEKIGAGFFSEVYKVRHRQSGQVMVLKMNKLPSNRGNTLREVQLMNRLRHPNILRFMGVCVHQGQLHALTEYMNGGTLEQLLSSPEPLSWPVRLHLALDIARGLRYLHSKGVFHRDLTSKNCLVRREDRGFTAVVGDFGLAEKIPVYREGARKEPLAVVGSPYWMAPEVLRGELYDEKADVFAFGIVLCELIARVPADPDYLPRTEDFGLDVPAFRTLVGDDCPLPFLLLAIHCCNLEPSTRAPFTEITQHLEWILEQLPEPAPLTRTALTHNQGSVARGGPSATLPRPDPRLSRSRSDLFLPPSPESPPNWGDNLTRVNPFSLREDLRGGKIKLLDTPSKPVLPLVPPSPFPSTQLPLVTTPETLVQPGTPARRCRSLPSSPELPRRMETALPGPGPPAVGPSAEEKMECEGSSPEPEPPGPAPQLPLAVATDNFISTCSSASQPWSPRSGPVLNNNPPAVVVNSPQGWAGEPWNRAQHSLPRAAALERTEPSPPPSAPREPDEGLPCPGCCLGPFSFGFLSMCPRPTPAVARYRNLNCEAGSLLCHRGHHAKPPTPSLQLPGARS

| Compound | remaining activity at 0.1 µM (TSSK1) [%] | remaining activity at 1 µM (TSSK1) [%] | remaining activity at 0.1 µM (IKK epsilon) [%] | remaining activity at 1 µM (IKK epsilon) [%] | Expression of FIZZ, YM1 and Mgl2 [1] | remaining activity at 0.1 µM (MARK2) [%] | remaining activity at 1 µM (MARK2) [%] | remaining activity at 0.1 µM (p38 alpha MAPK) [%] | remaining activity at 1 µM (p38 alpha MAPK) [%] | remaining activity at 0.1 µM (PRAK) [%] | remaining activity at 1 µM (PRAK) [%] | remaining activity at 0.1 µM (TESK1) [%] | remaining activity at 1 µM (TESK1) [%] | remaining activity at 0.1 µM (TBK1) [%] | remaining activity at 1 µM (TBK1) [%] | remaining activity at 0.1 µM (IGF-1R) [%] | remaining activity at 1 µM (IGF-1R) [%] |
| --- | --- | --- | --- | --- | --- | --- | --- | --- | --- | --- | --- | --- | --- | --- | --- | --- | --- |
| COc1cc(Nc2c(C#N)cnc3cc(OCCCN4CCN(C)CC4)c(OC)cc23)c(Cl)cc1Cl [Bosutinib, bosutinib] | 67 ± 1 | 22 ± 2 | 46 ± 7 | 6 | without affecting the expression | 89 ± 8 | 68 ± 1 | 97 ± 4 | 72 ± 3 | 97 ± 2 | 125 ± 1 | 82 ± 15 | 61 ± 2 | 75 ± 1 | 29 ± 1 | 89 ± 8 | 79 ± 4 |
| Cc1nc(Nc2ncc(C(=O)Nc3c(C)cccc3Cl)s2)cc(N2CCN(CCO)CC2)n1 [Dasatinib] | 106 ± 11 | 113 ± 3 | 102 ± 5 | 123 ± 13 | without affecting the expression | 118 ± 4 | 126 ± 2 | 79 ± 15 | 29 ± 2 | 129 ± 14 | 128 ± 7 | 50 ± 3 | 8 | 100 ± 1 | 97 ± 10 | 107 ± 6 | 98 ± 7 |
